The text below walks through data of paper PMC8689225, “Cardiac ryanodine receptor N-terminal region biosensors identify novel inhibitors via FRET-based high-throughput screening” (The Journal of Biological Chemistry, 2021).

In one assay the target is T1, human RyR2 (Homo sapiens, UniProt Q92736).
T1 construct: expressed in transfected cells; host or cells: HEK293, transient co-transfection with mCer-SERCA2a and R-CEPIA1er
Put plainly: [Ca2+]ER load in permeabilized HEK293 cells expressing GFP-hRyR2, mCer-SERCA2a, R-CEPIA1er. Format: cell-based. The conditions noted are these: compared to vehicle. On the procedure:
The method for measuring of [Ca^2+]ER load-leak balance in HEK293 cells was previously described ([48]). Briefly, HEK293 cells were transiently cotransfected with plasmids encoding GFP-hRyR2, mCer-SERCA2a, and R-CEPIA1er cDNAs. After 48 h of protein expression, transfected cells were used for the confocal experiments. Before each measurement, cells were washed with a solution containing (in mM): 150 K-aspartate, 0.25 MgCl2, 0.1 EGTA, 10 HEPES, pH 7.2. Then, the cellular plasma membranes were permeabilized with 0.005% saponin dissolved in the experimental solution containing (in mM): K-aspartate 100; KCl 15; KH2PO4 5; MgATP 5; EGTA 0.35; CaCl2 0.22; MgCl2 0.75; HEPES 10; dextran (MW: 40,000) 2%, pH 7.2. Free [Ca^2+] and [Mg^2+] were set at 100 nM and 1 mM respectively. After 3 min of saponin incubation, the permeabilized cells were perfused with saponin-free experimental solution.
Changes in [Ca^2+]ER load-leak balance in permeabilized HEK293 cells were monitored using a laser scanning confocal microscope (Radiance 2000 MP, BioRad) equipped with a 40× oil objective lens (N.A. =1.3). […]
Cells were perfused with the experimental solution for 3 min to ensure a steady [Ca^2+]ER signal. […] Fmax was determined upon application of 2 μM ionomycin and 10 mM Ca^2+. Changes in [Ca^2+]ER were calculated according to [Ca^2+]ER = (F−Fmin)/(Fmax−Fmin).

Assay [1] concerns the target T2, RyR1 (Sus scrofa, UniProt P16960).
T2 construct: from tissue; host or cells: porcine longissimus dorsi muscle, heavy SR vesicles
As to the kind of experiment: [3H]ryanodine binding to skeletal SR (HSR) vesicles. Format: biochemical, pig. The settings on record: for EC50: Table S4, read-out: EC50, [3H]ryanodine binding, skeletal HSR. As for the experimental part:
Crude sarcoplasmic reticulum membrane vesicles were isolated from porcine longissimus dorsi muscle and porcine cardiac left ventricle tissue by differential centrifugation of homogenized tissue, as established previously ([65]). Skeletal heavy SR (HSR) vesicles, which are enriched with RyR1, were isolated by fractionation of crude skeletal SR vesicles using a discontinuous sucrose gradient, in accordance with our published work ([65]). All vesicles were flash-frozen and stored at −80 °C.
In 96-well plates, skeletal SR membranes (HSR, 1 mg/ml) and cardiac SR membranes (CSR, 3 mg/ml) were preincubated with 1% DMSO or hit compound for 30 min at 22 °C in a solution containing 150 mM KCl, 5 mM GSH, 1 μg/ml Aprotinin/Leupeptin, 1 mM EGTA, and 65 μM or 1.02 mM CaCl2 (as determined by MaxChelator to yield 30 nM or 30 μM of free Ca^2+, respectively), 0.1 mg/ml of BSA, and 20 mM K-PIPES (pH 7.0). Nonspecific [^3H]ryanodine binding to SR was assessed by addition of 40 μM nonradioactively labeled ryanodine. Maximal [^3H]ryanodine binding was assessed by addition of 5 mM adenylyl-imidodiphosphate (AMP-PNP), and in the case of CSR, 20 mM caffeine was added. These control samples were each loaded over four wells per plate. Binding of [^3H]ryanodine (7.5 and 10 nM for CSR and HSR, respectively) was determined following a 3 h incubation at 37 °C and filtration through grade GF/B glass microfiber filters (Brandel Inc) using a Brandel Harvester. In 4 ml of Ecolite scintillation cocktail (MP biomedicals), [^3H]ryanodine retained on the filter was counted using a Beckman LS6000 scintillation counter.

The target in assay [2] is T3, RyR1 (Rattus norvegicus, UniProt F1LMY4).
T3 construct: from tissue; host or cells: Wistar rat extensor digitorum longus (EDL), mechanically skinned single fibres
Put plainly: t-tubule Ca2+ measurement of RyR1 leak in skinned skeletal muscle fibers. Format: cell-based. The conditions noted are these: 10 μM FA or 1 mM tetracaine, [Ca2+]cyto 200 nM. On the procedure:
All experimental methods using rodents were approved by the Animal Ethics Committees at The University of Queensland and were performed in accordance with the relevant guidelines and regulations. Five-month-old Wistar rats (UQ Biological Resources) were euthanized by asphyxiation via CO2 exposure, and the extensor digitorum longus (EDL) was rapidly excised. Once dissected, muscles were pinned to Sylgard set in a Petri dish containing paraffin oil.
Bundles of fibers were isolated and exposed to an internal solution containing rhod-5N, as described previously ([47]). After 15 min incubation, single skeletal muscle fibers were mechanically skinned and mounted in a custom-made chamber. […] For tracking Ca^2+ movements across the t-system membrane, images were continuously recorded in xyt mode with an aspect ratio of 256 × 512, with the long aspect of the image parallel with that of the preparation. Temporal resolution of imaging in this mode where the fluorescence signal was within the borders of the fiber was 0.8 s.
T-system rhod-5N fluorescence was converted to [Ca^2+]t-sys as previously described ([47]). To determine the effect of RyR modulators on the RyR Ca^2+ leak, isolated mechanically skinned fibers were continuously imaged as described above, to obtain a record of t-system rhod-5N fluorescence changes over time as the cytoplasmic solution bathing the fiber was changed. […]

Each structure is given as a SMILES string. Read-outs that look alike come from different tables or passages of the source.

T2 sequence (P16960 whole entry): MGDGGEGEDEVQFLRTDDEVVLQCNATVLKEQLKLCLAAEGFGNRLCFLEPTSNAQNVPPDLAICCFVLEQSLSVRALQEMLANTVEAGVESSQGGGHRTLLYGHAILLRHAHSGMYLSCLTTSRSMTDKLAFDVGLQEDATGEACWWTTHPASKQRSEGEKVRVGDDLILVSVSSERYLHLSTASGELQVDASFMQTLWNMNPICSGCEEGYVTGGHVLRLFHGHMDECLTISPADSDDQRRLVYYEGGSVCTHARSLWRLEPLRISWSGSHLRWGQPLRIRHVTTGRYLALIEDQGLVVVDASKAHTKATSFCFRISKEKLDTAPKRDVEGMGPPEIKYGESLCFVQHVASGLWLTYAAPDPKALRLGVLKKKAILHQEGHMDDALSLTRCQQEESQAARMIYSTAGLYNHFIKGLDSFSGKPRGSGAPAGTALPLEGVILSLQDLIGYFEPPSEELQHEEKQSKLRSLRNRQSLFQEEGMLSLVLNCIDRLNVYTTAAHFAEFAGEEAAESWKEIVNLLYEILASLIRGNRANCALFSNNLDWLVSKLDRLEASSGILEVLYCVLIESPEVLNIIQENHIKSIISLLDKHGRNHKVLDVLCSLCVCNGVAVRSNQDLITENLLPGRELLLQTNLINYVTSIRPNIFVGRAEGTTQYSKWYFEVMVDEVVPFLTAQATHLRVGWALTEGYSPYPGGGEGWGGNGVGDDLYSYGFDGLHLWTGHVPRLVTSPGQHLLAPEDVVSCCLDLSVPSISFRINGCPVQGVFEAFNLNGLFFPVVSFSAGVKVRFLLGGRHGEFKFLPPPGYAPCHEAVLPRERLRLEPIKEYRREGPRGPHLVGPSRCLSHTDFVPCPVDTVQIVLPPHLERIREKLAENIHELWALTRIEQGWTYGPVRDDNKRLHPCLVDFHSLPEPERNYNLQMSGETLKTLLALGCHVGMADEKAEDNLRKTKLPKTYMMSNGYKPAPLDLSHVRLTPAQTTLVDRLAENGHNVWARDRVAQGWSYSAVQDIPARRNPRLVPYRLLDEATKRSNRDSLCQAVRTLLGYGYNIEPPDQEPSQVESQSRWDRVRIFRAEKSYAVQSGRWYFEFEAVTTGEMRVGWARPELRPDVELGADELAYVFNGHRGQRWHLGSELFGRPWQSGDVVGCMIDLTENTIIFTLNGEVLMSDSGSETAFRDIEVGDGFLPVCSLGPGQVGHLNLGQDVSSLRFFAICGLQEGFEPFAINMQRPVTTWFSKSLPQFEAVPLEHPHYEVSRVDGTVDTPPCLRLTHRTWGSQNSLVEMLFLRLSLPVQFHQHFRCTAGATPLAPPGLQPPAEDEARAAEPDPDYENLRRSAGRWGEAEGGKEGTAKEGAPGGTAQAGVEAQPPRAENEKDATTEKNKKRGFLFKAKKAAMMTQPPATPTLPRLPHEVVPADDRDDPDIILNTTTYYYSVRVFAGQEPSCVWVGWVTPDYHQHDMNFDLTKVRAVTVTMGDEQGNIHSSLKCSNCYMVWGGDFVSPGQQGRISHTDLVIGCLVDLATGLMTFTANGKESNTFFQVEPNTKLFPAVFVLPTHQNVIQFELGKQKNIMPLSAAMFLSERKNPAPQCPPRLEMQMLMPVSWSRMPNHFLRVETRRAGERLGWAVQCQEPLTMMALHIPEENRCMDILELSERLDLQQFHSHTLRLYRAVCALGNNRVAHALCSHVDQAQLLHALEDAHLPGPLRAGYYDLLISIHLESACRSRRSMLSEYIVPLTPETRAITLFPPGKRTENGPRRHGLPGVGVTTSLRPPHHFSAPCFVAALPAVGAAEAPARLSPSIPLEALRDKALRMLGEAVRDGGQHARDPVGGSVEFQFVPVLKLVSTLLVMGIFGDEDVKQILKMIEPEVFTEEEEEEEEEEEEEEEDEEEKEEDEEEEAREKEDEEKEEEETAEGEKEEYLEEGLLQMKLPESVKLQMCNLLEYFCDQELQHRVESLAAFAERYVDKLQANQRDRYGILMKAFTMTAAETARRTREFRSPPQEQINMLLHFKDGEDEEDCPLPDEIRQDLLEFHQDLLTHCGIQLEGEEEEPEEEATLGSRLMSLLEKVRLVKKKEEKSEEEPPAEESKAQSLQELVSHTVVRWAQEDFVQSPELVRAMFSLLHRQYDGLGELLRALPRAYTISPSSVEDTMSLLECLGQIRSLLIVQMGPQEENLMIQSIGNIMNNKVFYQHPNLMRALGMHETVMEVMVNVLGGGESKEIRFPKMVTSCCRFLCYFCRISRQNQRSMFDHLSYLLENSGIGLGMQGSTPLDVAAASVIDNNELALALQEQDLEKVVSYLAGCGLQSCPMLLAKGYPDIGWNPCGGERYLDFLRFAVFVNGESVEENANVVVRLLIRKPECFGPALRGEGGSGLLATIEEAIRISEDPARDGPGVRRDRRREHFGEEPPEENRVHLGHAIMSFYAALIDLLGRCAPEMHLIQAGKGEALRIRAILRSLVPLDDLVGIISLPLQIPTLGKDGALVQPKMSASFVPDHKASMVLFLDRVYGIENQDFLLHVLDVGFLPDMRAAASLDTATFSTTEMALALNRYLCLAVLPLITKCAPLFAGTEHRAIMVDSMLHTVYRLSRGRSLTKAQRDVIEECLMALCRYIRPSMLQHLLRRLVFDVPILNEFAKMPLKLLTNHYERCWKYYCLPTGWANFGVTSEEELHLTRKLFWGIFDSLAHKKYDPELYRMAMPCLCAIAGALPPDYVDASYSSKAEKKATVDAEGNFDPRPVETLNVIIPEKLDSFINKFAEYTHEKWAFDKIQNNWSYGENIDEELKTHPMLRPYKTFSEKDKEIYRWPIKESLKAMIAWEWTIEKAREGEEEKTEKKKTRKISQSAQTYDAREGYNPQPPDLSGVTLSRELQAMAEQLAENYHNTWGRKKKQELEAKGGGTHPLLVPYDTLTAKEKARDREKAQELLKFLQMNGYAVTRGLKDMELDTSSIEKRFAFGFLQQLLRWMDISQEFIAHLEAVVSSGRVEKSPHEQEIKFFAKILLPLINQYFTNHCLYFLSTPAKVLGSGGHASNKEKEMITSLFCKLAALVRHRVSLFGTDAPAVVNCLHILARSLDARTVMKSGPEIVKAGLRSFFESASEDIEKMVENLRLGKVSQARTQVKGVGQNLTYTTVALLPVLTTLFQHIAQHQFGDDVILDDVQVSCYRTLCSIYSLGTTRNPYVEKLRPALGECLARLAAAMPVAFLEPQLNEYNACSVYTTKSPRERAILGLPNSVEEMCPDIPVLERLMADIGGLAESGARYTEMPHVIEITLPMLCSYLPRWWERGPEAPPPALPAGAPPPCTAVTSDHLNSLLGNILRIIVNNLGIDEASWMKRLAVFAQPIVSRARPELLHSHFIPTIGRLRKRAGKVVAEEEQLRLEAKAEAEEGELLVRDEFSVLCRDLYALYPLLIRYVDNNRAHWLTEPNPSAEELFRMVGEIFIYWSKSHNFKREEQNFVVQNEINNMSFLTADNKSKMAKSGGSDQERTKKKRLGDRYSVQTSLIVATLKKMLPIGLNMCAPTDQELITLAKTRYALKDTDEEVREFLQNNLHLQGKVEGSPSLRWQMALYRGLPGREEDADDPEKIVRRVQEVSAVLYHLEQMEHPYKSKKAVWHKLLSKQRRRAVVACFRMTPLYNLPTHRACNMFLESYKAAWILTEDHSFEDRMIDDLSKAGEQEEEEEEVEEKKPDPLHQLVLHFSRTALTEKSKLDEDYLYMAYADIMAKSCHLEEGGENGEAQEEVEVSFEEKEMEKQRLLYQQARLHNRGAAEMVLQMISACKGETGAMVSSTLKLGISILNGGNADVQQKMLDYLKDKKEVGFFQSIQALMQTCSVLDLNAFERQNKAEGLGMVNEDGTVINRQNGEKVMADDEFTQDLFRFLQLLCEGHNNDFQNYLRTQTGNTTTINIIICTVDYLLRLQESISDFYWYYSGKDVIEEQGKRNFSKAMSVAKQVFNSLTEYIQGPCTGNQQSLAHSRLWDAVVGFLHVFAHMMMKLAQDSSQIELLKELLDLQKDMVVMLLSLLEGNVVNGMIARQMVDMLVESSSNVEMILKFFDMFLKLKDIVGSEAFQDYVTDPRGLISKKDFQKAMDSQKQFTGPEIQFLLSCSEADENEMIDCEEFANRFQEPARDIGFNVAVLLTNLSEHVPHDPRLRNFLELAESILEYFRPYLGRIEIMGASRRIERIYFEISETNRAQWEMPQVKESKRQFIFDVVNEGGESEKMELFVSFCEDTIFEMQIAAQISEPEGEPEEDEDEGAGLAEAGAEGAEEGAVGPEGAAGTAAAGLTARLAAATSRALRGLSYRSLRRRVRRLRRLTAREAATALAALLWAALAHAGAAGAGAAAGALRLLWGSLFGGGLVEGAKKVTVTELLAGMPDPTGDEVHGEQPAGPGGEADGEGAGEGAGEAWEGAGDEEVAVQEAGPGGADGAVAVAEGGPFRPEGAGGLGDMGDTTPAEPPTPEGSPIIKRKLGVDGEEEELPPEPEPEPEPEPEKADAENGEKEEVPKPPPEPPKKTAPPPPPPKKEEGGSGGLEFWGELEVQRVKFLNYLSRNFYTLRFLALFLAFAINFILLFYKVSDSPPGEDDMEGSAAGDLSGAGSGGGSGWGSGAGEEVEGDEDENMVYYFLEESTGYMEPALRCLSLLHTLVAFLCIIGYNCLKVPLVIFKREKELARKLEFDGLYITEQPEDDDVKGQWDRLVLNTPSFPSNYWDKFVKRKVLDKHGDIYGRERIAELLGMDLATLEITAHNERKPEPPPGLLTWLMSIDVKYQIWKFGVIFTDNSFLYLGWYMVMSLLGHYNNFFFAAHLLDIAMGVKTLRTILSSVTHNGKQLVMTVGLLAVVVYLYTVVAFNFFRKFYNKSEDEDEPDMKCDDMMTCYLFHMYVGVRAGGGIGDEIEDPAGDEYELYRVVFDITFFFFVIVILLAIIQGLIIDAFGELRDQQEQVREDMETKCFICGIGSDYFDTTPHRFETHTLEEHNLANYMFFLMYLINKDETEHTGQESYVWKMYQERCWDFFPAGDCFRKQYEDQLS

For `CC(=O)O[C@H]1C[C@@]2(C)[C@@H](C[C@@H](O)[C@H]3[C@@]4(C)CC[C@@H](O)[C@@H](C)[C@@H]4CC[C@@]32C)/C1=C(\CCC=C(C)C)C(=O)O` [FA, (2Z)-2-[(3R,4S,5S,8S,9S,10S,11R,13R,14S,16S)-16-acetyloxy-3,11-dihydroxy-4,8,10,14-tetramethyl-2,3,4,5,6,7,9,11,12,13,15,16-dodecahydro-1H-cyclopenta[a]phenanthren-17-ylidene]-6-methylhept-5-enoic acid], on human RyR2 (5 μM FA), the “[Ca2+]ER increase” value is listed as 94 ± 17%. In addition, the “[Ca2+]ER decrease” value at human RyR2 (10 μM FA) was found to be 24 ± 8%. For the same compound, the EC50 at RyR1 [1] ([Ca2+] 30 nM) worked out at 0.01 µM; at RyR1 [1] ([Ca2+], 30 µM), 21.1 µM. The “maximum inhibitory effect on [3H]ryanodine binding” value at RyR1 [1] (skeletal SR, 30 nM Ca2+) is reported as around 50%. At RyR1 [1] (skeletal SR, 30 μM Ca2+), the “effect on [3H]ryanodine binding to RyR1” value was “strongly increased”. On RyR1 [2], the “steady-state [Ca2+]t-sys (RyR1 leak)” value is given as “decreased”.

By EC50 is commonly meant the concentration needed to bring the measured effect to its halfway point.
